Counter-ions that a name gives are not always drawn. Each block holds one molecule with its values, some of them ahead of it.
Columns and labels:
Type in all cases: biochemical
porcine pancreatic PLA2 [1] = biological target: T1, porcine pancreatic PLA2 (Sus scrofa, UniProt P00592); assay: HPLA2 assay: in vitro porcine pancreatic phospholipase A2, preincubation design, [s]=10 μm; conditions: for inhibition at 10 µg/mL / inhibition at 20 µg/mL / inhibition at 50 µg/mL: subs. con. 10, read-out: % Inh. Avg.; for % Inh. Avg.: subs. con. 10
T1 construct: purchased Sigma
Protocol: (§1) Phospholipase A2 activity was measured by a radiochemical assay in which labeled synthetic phosphatidylcholine substrate is converted by porcine pancreatic PLA2 to free radiolabeled arachidonate and lyso PC. Radiolabeled arachidonate is extracted from the reaction mixture and separated from unreacted substrate by column chromatography or TLC. Radioactivity (cpm) in samples is quantitated by liquid scintillation counting. Specific details are as follows:
(§2) Labeled substrate(1-stearyl-2-^3 H-arachidonylphosphatidylcholine; Amersham, sp. act. 84 (uCi/mmole, 0.025 to 0.2 uCi/assay tube and unlabeled substrates (Avanti), in sufficient quantity to give 20,000 cpm to 50,000 cpm and 10 μM to 1,000 μM final concentration/assay tube are dried under a stream of nitrogen. The PLA2 and mPLA2 assays utilized a […] substrate concentration. The mHPLA2 and HPLA2 assays (vida infra) utilized a 10 μM substrate concentration and the SmPLA2 assay utilized a substrate concentration ranging from 100 to 1000 μm. The substrate is then redissolved in 0.1M tris-HCl buffer, pH 9.0 containing 10 mM CaCl2 and 10 mM Na taurocholate detergent. The mixture is sonicated in a Kontes Sonifier to yield a homogeneous dispersion. The "mixed" micellar substrate is clear. An aliquot is reserved for a cpm count (total substrate). The total reaction volume is 500 μL; siliconized glassware or plasticware is used throughout. Enzyme (Sigma, sp. act.>690 U/mg protein and preferably 900 U/mg protein) is diluted 1:750 or 1:1000 in 0.1M tris-HCl buffer, pH 9.0 (without Ca^++ and detergent). Enzyme dilution depends on substrate concentration and required enzyme concentration.
(§3) The substrate in buffer is kept on ice until the reaction is started. The reaction is started by adding 10 μL of diluted enzyme solution to 490 μL of micellar substrate solution. Samples are incubated in a 37° C. water bath for 15 minutes with gentle mixing. The reaction is terminated by the addition of 100 μL of 1M fresh trichloroacetic acid (TCA) solution and chilling the tubes on ice for 30 minutes.
(§4) Samples (600 μL) are extracted with 3 ml CHCl3 /MeOH (2:1) for thin layer chromatography or in hexane/ether (9:1) for column chromatography. The phases are separated by gentle centrifugation at 700 rpm×5'. The organic phase is recovered.
Labeled arachidonate extracted with CHCl3 /MeOH is separated on silica gel G TLC plates (Analtech). Twenty μL of a 2 mg/ml internal standard solution of arachidonic acid (Sigma) is combined with 2-3 ml of the organic phase. The entire mixture is dried under nitrogen and redissolved in 50 μL of CHCl3 /MeOH (2:1). A 20 μL sample is counted in 10 ml of Beckman Redi-solv HP and spotted on silica gel G plates. […] Plates are developed in a glass chamber for 1-11/2 hours, air dried, and the spots visualized in an iodine vapor chamber. Standards of phosphatidylcholine, lyso PC, and arachidonic acid (Sigma) are made as 2 mg/ml stocks in CHCl3 /MeOH (2:1) and spotted on plates. Spots corresponding to arachidonate and phospholipid are scraped and counted in 10 ml Beckman Redi-Solv HP scintillation fluid.
(§5) Samples are extracted with hexane/ether and the upper organic phase recovered. An aliquot is applied to a Silicar CC4 (Malincrodt) column. Columns are prepared using 1 ml of a 1:1 slurry of silicar CC4 in hexane/ether in a Pasteur pipet (approx. 2 cm height). Columns are rinsed with 500 μL of hexane/ether before adding the sample (300-600 μL) to the column. Columns are eluted with a total of 6 ml of hexane/ether. The 6 ml sample is counted in 10 ml of Beckman Redi-Solv HP scintillation fluid.
or the phospholipase A2 assay, compounds are prepared as 1 mg/ml stock solutions in MeOH and diluted appropriately in PBS.

porcine pancreatic PLA2 [2] = biological target: T1, porcine pancreatic PLA2; assay: MHPLA2 assay: in vitro porcine pancreatic phospholipase A2, mixed micelle design, [s]=10 μm; conditions: for % Inh.: subs. con. 10
Procedure, shortened: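 Compounds dried with 10 μM 1-stearyl-2-[3H]-arachidonyl-PC substrate in mixed micelles (0.1M tris-HCl pH 9.0, 10 mM CaCl2, 10 mM Na taurocholate). Reaction started by adding enzyme and run 15 min at 37°C, then stopped with TCA. Released [3H]-arachidonate separated by TLC or column and counted by scintillation.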

porcine pancreatic PLA2 [3] = biological target: T1, porcine pancreatic PLA2; assay: MPLA2 assay: in vitro porcine pancreatic phospholipase A2, mixed micelle design, substrate 2 nM; conditions: dose 25 μ/ml, subs. con. 2, read-out: % Inh.
Procedure, shortened: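 Radiochemical PLA2 assay, mixed-micelle design: compound dried under N2 with 1-stearyl-2-[3H]-arachidonyl-PC substrate (2 nM) in 0.1M Tris-HCl pH 9.0, 10 mM CaCl2, 10 mM Na taurocholate. Reaction started with enzyme, 15 min at 37° C, stopped with TCA; released [3H]-arachidonate extracted, separated by TLC or column, counted by scintillation.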

porcine pancreatic PLA2 [4] = biological target: T1, porcine pancreatic PLA2; assay: PLA2 assay: in vitro porcine pancreatic phospholipase A2, preincubation of drug+enzyme, substrate 2 nM; conditions: preincubation, subs. con. 2
Procedure, shortened: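 Porcine pancreatic PLA2 acting on 2 nM radiolabeled arachidonyl-phosphatidylcholine in mixed micelles (0.1 M Tris-HCl pH 9.0, 10 mM CaCl2, 10 mM Na taurocholate), 15 min at 37 °C with preincubation of drug and enzyme. Stopped with TCA; released 3H-arachidonate extracted, separated by TLC or column, counted by scintillation.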

porcine pancreatic PLA2 [5] = biological target: T1, porcine pancreatic PLA2; assay: SMPLA2 assay: in vitro porcine pancreatic phospholipase A2, mixed micelle design, substrate 100 to 1000 μm
Protocol: as §1, §2, §3, §4
Labeled arachidonate extracted with CHCl3 /MeOH is separated on silica gel G TLC plates (Analtech). Twenty μL of a 2 mg/ml internal standard solution of arachidonic acid (Sigma) is combined with 2-3 ml of the organic phase. The entire mixture is dried under nitrogen and redissolved in 50 μL of CHCl3 /MeOH (2:1). A 20 μL sample is counted in 10 ml of Beckman Redi-solv HP and spotted on silica gel G plates. The solvent system used to develop the plate is CHCl3 /MeOH/13.5N NH3 /H2 O (70:30:4:1). Plates are developed in a glass chamber for 1-11/2 hours, air dried, and the spots visualized in an iodine vapor chamber. Standards of phosphatidylcholine, lyso PC, and arachidonic acid (Sigma) are made as 2 mg/ml stocks in CHCl3 /MeOH (2:1) and spotted on plates. Spots corresponding to arachidonate and phospholipid are scraped and counted in 10 ml Beckman Redi-Solv HP scintillation fluid.
as §5
or the phospholipase A2 assay, compounds are prepared as 1 mg/ml stock solutions in MeOH and diluted appropriately in PBS. […]

T1 sequence (P00592 23-146): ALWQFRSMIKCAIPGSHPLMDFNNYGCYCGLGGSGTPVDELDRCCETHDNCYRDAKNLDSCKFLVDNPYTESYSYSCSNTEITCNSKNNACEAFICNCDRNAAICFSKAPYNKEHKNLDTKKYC

SMILES: CCCCCCCCCCCCCCCCOC[C@H](COP(=O)([O-])OCC[N+](C)(C)C)OP(=O)(OC)OCCCCCCCCCCCCCCCC (single isomer, unassigned)
inhibition at 10 µg/mL (porcine pancreatic PLA2 [1]; dose 10 μ/ml): 17% | inhibition at 20 µg/mL (porcine pancreatic PLA2 [1]; dose 20 μ/ml): 21% | inhibition at 50 µg/mL (porcine pancreatic PLA2 [1]; dose 50 μ/ml): 30% | inhibition at 25 µg/mL (porcine pancreatic PLA2 [2]; dose 25 μ/ml, subs. con. 10, read-out: % Inh.): 7% | inhibition at 25 µg/mL (porcine pancreatic PLA2 [3]): 93% | inhibition at 25 µg/mL (porcine pancreatic PLA2 [4]; dose 25 μ/ml, read-out: % Inh.): 93% | IC50 (porcine pancreatic PLA2 [4]; read-out: IC50 (converted)): 2500 nM

SMILES: CCCCCCCCCCCCCCCCOC[C@@H](COP(=O)([O-])OCC[N+](C)(C)C)OP(=O)(OC)OCCCCCCCCCCCCCCCC (single isomer, unassigned)
inhibition at 10 µg/mL (porcine pancreatic PLA2 [1]; dose 10 μ/ml): 22% | inhibition at 20 µg/mL (porcine pancreatic PLA2 [1]; dose 20 μ/ml): 18% | inhibition at 50 µg/mL (porcine pancreatic PLA2 [1]; dose 50 μ/ml): 23% | inhibition at 10 µg/mL (porcine pancreatic PLA2 [4]; dose 10 μ/ml, read-out: % Inh. Avg.): 29% | inhibition at 20 µg/mL (porcine pancreatic PLA2 [4]; dose 20 μ/ml, read-out: % Inh. Avg.): 26%

SMILES: CCCCCCCCCCCCCCCCOC[C@@H](COP(=O)([O-])OCC[N+](C)(C)C)OP(=O)(OC)OCCCCCCCCCCCCCCCC (single isomer, unassigned) [3,5,8,10-Tetraoxa-4,9-diphosphahexacosan-1-aminium, 7-[(hexa]
% Inh. Avg. (porcine pancreatic PLA2 [1]; dose 10 μ/ml): 18% | % Inh. Avg. (porcine pancreatic PLA2 [1]; dose 20 μ/ml): 12% | % Inh. Avg. (porcine pancreatic PLA2 [1]; dose 50 μ/ml): 25% | % Inh. (porcine pancreatic PLA2 [2]; dose 25 μ/ml): 9% | % Inh. Avg. (porcine pancreatic PLA2 [4]; dose 10 μ/ml): 25% | % Inh. Avg. (porcine pancreatic PLA2 [4]; dose 20 μ/ml): 39%

% Inh. (porcine pancreatic PLA2 [2]; dose 10 μ/ml): STIM | % Inh. (porcine pancreatic PLA2 [2]; dose 25 μ/ml): STIM | % Inh. (porcine pancreatic PLA2 [5]; dose 10 μ/ml, subs. con. 100): STIM | inhibition at 10 µg/mL (porcine pancreatic PLA2 [5]; dose 10 μ/ml, subs. con. 500): 7% | inhibition at 10 µg/mL (porcine pancreatic PLA2 [5]; dose 10 μ/ml, subs. con. 1000): 22% | % Inh. (porcine pancreatic PLA2 [5]; dose 25 μ/ml, subs. con. 100): STIM | inhibition at 25 µg/mL (porcine pancreatic PLA2 [5]; dose 25 μ/ml, subs. con. 500): 29% | inhibition at 25 µg/mL (porcine pancreatic PLA2 [5]; dose 25 μ/ml, subs. con. 1000): 3% | % Inh. (porcine pancreatic PLA2 [5]; dose 50 μ/ml, subs. con. 100): STIM | % Inh. (porcine pancreatic PLA2 [5]; dose 50 μ/ml, subs. con. 500): STIM | % Inh. (porcine pancreatic PLA2 [5]; dose 50 μ/ml, subs. con. 1000): STIM | inhibition at 25 µg/mL (porcine pancreatic PLA2 [3]): 100% | inhibition at 10 µg/mL (porcine pancreatic PLA2 [4]; dose 10 μ/ml, read-out: % Inh.): 21% | inhibition at 20 µg/mL (porcine pancreatic PLA2 [4]; dose 20 μ/ml, read-out: % Inh.): 41%
SMILES: CCCCCCCCCCCCCCCCOCC(COP(=O)([O-])OCC[N+](C)(C)C)OP(=O)(O)OCCCCC (single isomer, unassigned; less polar) [3,5,8,10-Tetraoxa-4,9-diphosphapentadecan-1-aminium, 7-[(hexadecyloxy)methyl]-4,9-dihydroxy-N,N,N-trimethyl-, hydroxide, 4-(inner salt), 4,9-dioxide, less polar isomer]
